Where two headings read alike, the source gives them in different places.
What was measured:
[1] = system: HCT-116; assay: MTT cytotoxicity assay, colon cancer cells; format: cell-based, human; conditions: for SI: Selectivity Index from IC50 normal (VERO-B) and IC50 cancer (HCT-116)
Method: (§1) The cytotoxic activity of the compounds was tested against different mammalian cancer cells, prostate carcinoma cells (PC-3), hepatocellular carcinoma (HepG2) and colon cancer cells (HCT-116) and against African green monkey kidney cell line (Vero-B). The cell lines were obtained from American Type Culture Collection (ATCC). The cells were cultivated at 37° C. and 10% CO2 in DMEM (Lonza, 12-604F) medium supplemented with 10% fetal bovine serum (FBS, Lonza, Cat. No. 14-801E), 100 IU/ml penicillin and 100 μg/ml streptomycin (Lonza, 17-602E). Cisplatin (cis-diamineplatinum (II) dichloride) was used as a positive control and was obtained from Sigma then dissolved in 0.9% saline then stored as 8 mM stock solution at −20° C. The synthesized compounds were solubilized in DMSO and stored at −20° C. 0.5% crystal violet was prepared in Methanol and was used to stain the viable cells (Feoktistova, Geserick et al. 2016). Crystal violet binds to proteins and DNA in the adherent and viable cells so the stain is an indicator for the viability of the treated cells. The viability of the cells were quantified by using MTT reagent (3-(4,5-dimethylthiazol-2-yl)-2,5-diphenyl tetrazolium bromide), which measure the activity of mitochondrial dehydrogenase in the viable cells (Slater, Sawyer et al. 1963, Mosmann 1983).
(§2) Cytotoxicity was further assayed as follows. The cells were seeded in 96-well plate as 5*10^4 cells/mL (100 μL/well). A serial dilutions of tested compounds or cisplatin (100, 30, 10, 3.3, 1.1 or 0.37 μM) was added after overnight incubation of the cells at 37° C. and 5% CO2. DMSO was used as a control (0.1%). The cells were incubated for 48 hrs. After that, 15 μl of MTT (5 mg/mL PBS) was added to each well and incubated for another 4 hours. The formazan crystals were solubilized by 100 μL acidified SDS solution (10% SDS/0.01 M HCl). The absorbance was measured after 14 hours of incubation at 37° C. and 5% CO2 at 570 nm by Biotech plate reader. Each experiment was repeated three times and standard deviation was calculated (±). IC50% was calculated as the concentration that cause 50% inhibition for cell growth. The growth of the cells were monitored and the images were acquired by Gx microscopes (GXMGXD202 Inverted Microscope) (10× Eyepiece) after staining with crystal violet.

[2] = system: HepG2; assay: MTT cytotoxicity assay, hepatocellular carcinoma cells; format: cell-based, human; conditions: for SI: Selectivity Index from IC50 normal (VERO-B) and IC50 cancer (HepG2)
Method: as §1, §2

[3] = system: PC-3; assay: MTT cytotoxicity assay, prostate carcinoma cells; format: cell-based, human; conditions: for SI: Selectivity Index from IC50 normal (VERO-B) and IC50 cancer (PC-3)
Method: as §1, §2

[4] = system: Vero-B; assay: MTT cytotoxicity assay, normal kidney cell line; format: cell-based, African green monkey; conditions: read-out: VERO-B (IC50% μM)
Method: as §1, §2

[5] = Homo sapiens, HCT-116, MTT, 48 hrs incubation, read-out: HCT-116 (IC50% μM)
[6] = Homo sapiens, HCT-116, MTT, 48 hrs incubation, read-out: HCT-116 (IC50% μg/ml)
[7] = Homo sapiens, HepG2, MTT, 48 hrs incubation, read-out: HepG2 (IC50% μM)
[8] = Homo sapiens, HepG2, MTT, 48 hrs incubation, read-out: HepG2 (IC50% μg/ml)
[9] = Chlorocebus sabaeus, Vero B, Table 1, MTT, 48 hrs incubation
[10] = Homo sapiens, PC-3, MTT, 48 hrs incubation, read-out: PC-3 (IC50% μM)
[11] = Homo sapiens, PC-3, MTT, 48 hrs incubation, read-out: PC-3 (IC50% μg/ml)
[12] = Homo sapiens, HCT-116, 48 h, read-out: HCT-116 (IC50% μM), MTT, 48 hrs incubation
[13] = Homo sapiens, HCT-116, 48 h, read-out: HCT-116 (IC50% μg/ml), MTT, 48 hrs incubation
[14] = Chlorocebus sabaeus, Vero B, 48 h
[15] = read-out: HCT-116 (IC50% μM), MTT, 48 hrs incubation

| SMILES | SI [1] | SI [2] | SI [3] | IC50 [1, 5] [µM] | IC50 [1, 6] [µg/mL] | IC50 [2, 7] [µM] | IC50 [2, 8] [µg/mL] | IC50 [4, 9] [µM] | IC50 [3, 10] [µM] | IC50 [3, 11] [µg/mL] | other results |
| --- | --- | --- | --- | --- | --- | --- | --- | --- | --- | --- | --- |
| N.N.[Cl][Pt][Cl] [Cisplatin, cis-diamineplatinum (II) dichloride, reference compound] | 0.3968 | 0.9091 | 1 |  |  |  |  |  |  |  | HCT-116 (IC50% μg/ml) ([1]; MTT, 48 hrs incubation): 3.8 µg/mL; IC50 ([1]; MTT, 48 hrs incubation, read-out: HCT-116 (IC50% μM)): 12.6 ± 2 µM; HepG2 (IC50% μg/ml) ([2]; MTT, 48 hrs incubation): 1.7 µg/mL; IC50 ([2]; MTT, 48 hrs incubation, read-out: HepG2 (IC50% μM)): 5.5 ± 1 µM; PC-3 (IC50% μg/ml) ([3]; MTT, 48 hrs incubation): 1.5 µg/mL; IC50 ([3]; MTT, 48 hrs incubation, read-out: PC-3 (IC50% μM)): 5 ± 0.5 µM; IC50 ([4]; Table 1, MTT, 48 hrs incubation): 5 µM; IC50 ([4]; Table 2, MTT, 48 hrs incubation): 5 µM; IC50 ([4]; Table 3, MTT, 48 hrs incubation): 5 µM |
| Cc1ccc(/C=C/C(=O)[C@H]2[C@H](c3ccc(C)cc3)[C@H]3CSCN3[C@]23C(=O)Nc2ccccc23)cc1 [Compound 4b, (3R,6′S,7′R,7a′S)-7′-(p-tolyl)-6′-((E)-3-(p-tolyl)acryloyl)-1′,6′,7′,7a′-tetrahydro-3′H-spiro[indoline-3,5′-pyrrolo[1,2-c]thiazol]-2-one] | 1.475 | 3.305 |  | 8 ± 1.2 | 3.8 | 3.57 ± 0.5 | 1.7 | 11.8 |  |  |  |
| O=C(/C=C/c1ccc(Cl)cc1)[C@H]1[C@H](c2ccc(Cl)cc2)[C@H]2CSCN2[C@]12C(=O)Nc1ccccc12 [Compound 4c, (3R,6′S,7′R,7a′S)-7′-(4-chlorophenyl)-6′-((E)-3-(4-chlorophenyl)acryloyl)-1′,6′,7′,7a′-tetrahydro-3′H-spiro[indoline-3,5′-pyrrolo[1,2-c]thiazol]-2-one] |  | 3.5 | 2.593 | 3 ± 0.5 | 1.6 | 2 ± 0.5 | 1 | 7 | 2.7 ± 0.4 | 1.4 |  |
| O=C(/C=C/c1c(Cl)cccc1Cl)[C@H]1[C@H](c2c(Cl)cccc2Cl)[C@H]2CSCN2[C@]12C(=O)Nc1ccccc12 [Compound 4e, (3R,6′S,7′R,7a′S)-7′-(2,6-dichlorophenyl)-6′-((E)-3-(2,6-dichlorophenyl)acryloyl)-1′,6′,7′,7a′-tetrahydro-3′H-spiro[indoline-3,5′-pyrrolo[1,2-c]thiazol]-2-one] | 1 | 3 |  | 3 ± 0.3 | 1.8 | 1 ± 0.3 | 0.6 | 3 |  |  |  |
| O=C(/C=C/c1ccc(Br)cc1)[C@H]1[C@H](c2ccc(Br)cc2)[C@H]2CSCN2[C@]12C(=O)Nc1ccccc12 [Compound 4f, (3R,6′S,7′R,7a′S)-7′-(4-bromophenyl)-6′-((E)-3-(4-bromophenyl)acryloyl)-1′,6′,7′,7a′-tetrahydro-3′H-spiro[indoline-3,5′-pyrrolo[1,2-c]thiazol]-2-one] | 1 | 3.75 |  | 3 ± 0.5 | 1.8 | 0.8 ± 0.1 | 0.5 | 3 |  |  |  |
| O=C(/C=C/c1cccc([N+](=O)[O-])c1)[C@H]1[C@H](c2cccc([N+](=O)[O-])c2)[C@H]2CSCN2[C@]12C(=O)Nc1ccccc12 [Compound 4g] | 1 |  |  |  |  |  |  |  |  |  | IC50 [1, 12]: 2.5 ± 0.2 µM; IC50 [1, 13]: 1.4 µg/mL; IC50 [4, 14]: 2.5 µM |
| COc1ccc(/C=C/C(=O)[C@H]2[C@H](c3ccc(OC)cc3)[C@H]3CSCN3[C@]23C(=O)Nc2ccccc23)cc1 [Compound 4h, (3R,6′S,7′R,7a′S)-7′-(4-methoxyphenyl)-6′-((E)-3-(4-methoxyphenyl)acryloyl)-1′,6′,7′,7a′-tetrahydro-3′H-spiro[indoline-3,5′-pyrrolo[1,2-c]thiazol]-2-one] | 1.071 | 3.333 |  | 7 ± 0.9 | 3.6 | 2.25 ± 0.2 | 1.1 | 7.5 |  |  |  |
| O=C(/C=C/c1ccc2ccccc2c1)[C@H]1[C@H](c2ccc3ccccc3c2)[C@H]2CSCN2[C@]12C(=O)Nc1ccccc12 [Compound 4i, (3R,6′S,7′R,7a′S)-7′-(naphthalen-2-yl)-6′-((E)-3-(naphthalen-2-yl)acryloyl)-1′,6′,7′,7a′-tetrahydro-3′H-spiro[indoline-3,5′-pyrrolo[1,2-c]thiazol]-2-one] | 0.875 | 2.917 | 2.414 | 8 ± 0.3 | 4.4 | 2.4 ± 1 | 1.3 | 7 | 2.9 ± 0.2 | 1.6 |  |
| O=C(/C=C/c1cccs1)[C@H]1[C@H](c2cccs2)[C@H]2CSCN2[C@]12C(=O)Nc1ccccc12 [Compound 4j, (3R,6′S,7′S,7a′S)-7′-(thiophen-2-yl)-6′-((E)-3-(thiophen-2-yl)acryloyl)-1′,6′,7′,7a′-tetrahydro-3′H-spiro[indoline-3,5′-pyrrolo[1,2-c]thiazol]-2-one] | 1.241 |  |  |  |  |  |  |  |  |  | IC50 [1, 12]: ≥ 10 µM; IC50 [1, 13]: 6.7 µg/mL; IC50 [1, 15]: 14.5 ± 1.5 µM; IC50 [4, 14]: 18 µM |
| O=C(/C=C/c1ccco1)[C@H]1[C@H](c2ccco2)[C@H]2CSCN2[C@]12C(=O)Nc1ccccc12 [Compound 4k, (3R,6′S,7′S,7a′S)-7′-(furan-2-yl)-6′-((E)-3-(furan-2-yl)acryloyl)-1′,6′,7′,7a′-tetrahydro-3′H-spiro[indoline-3,5′-pyrrolo[1,2-c]thiazol]-2-one] | 1.316 |  |  |  |  |  |  |  |  |  | IC50 [1, 12]: ≥ 10 µM; IC50 [1, 13]: 10.1 µg/mL; IC50 [1, 15]: 19 ± 2 µM; IC50 [4, 14]: 25 µM |
| O=C(/C=C/c1cccc(Br)c1)[C@H]1[C@H](c2cccc(Br)c2)[C@H]2CSCN2[C@]12C(=O)Nc1ccccc12 [Compound 4l, (3R,6′S,7′R,7a′S)-7′-(3-bromophenyl)-6′-((E)-3-(3-bromophenyl)acryloyl)-1′,6′,7′,7a′-tetrahydro-3′H-spiro[indoline-3,5′-pyrrolo[1,2-c]thiazol]-2-one] | 1.911 | 3.333 | 2 | 1.57 ± 0.3 | 0.95 | 0.9 ± 0.1 | 0.5 | 3 | 1.5 ± 0.5 | 0.9 |  |
| O=C(/C=C/c1ccc(F)cc1)[C@H]1[C@H](c2ccc(F)cc2)[C@H]2CSCN2[C@]12C(=O)Nc1ccccc12 [Compound 4m, (3R,6′S,7′R,7a′S)-7′-(4-fluorophenyl)-6′-((E)-3-(4-fluorophenyl)acryloyl)-1′,6′,7′,7a′-tetrahydro-3′H-spiro[indoline-3,5′-pyrrolo[1,2-c]thiazol]-2-one] | 1.2 | 2.5 | 2.4 | 5 ± 0.3 | 2.4 | 2.4 ± 0.4 | 1.2 | 6 | 2.5 ± 0.2 | 1.2 |  |
| O=C(/C=C/c1ccc(C(F)(F)F)cc1)[C@H]1[C@H](c2ccc(C(F)(F)F)cc2)[C@H]2CSCN2[C@]12C(=O)Nc1ccccc12 [Compound 4n, (3R,6′S,7′R,7a′S)-7′-(4-(trifluoromethyl)phenyl)-6′-((E)-3-(4-(trifluoromethyl)phenyl)acryloyl)-1′,6′,7′,7a′-tetrahydro-3′H-spiro[indoline-3,5′-pyrrolo[1,2-c]thiazol]-2-one] | 0.8621 | 2.778 | 2.5 | 2.9 ± 0.4 | 1.7 | 0.9 ± 0.2 | 0.5 | 2.5 | 1 ± 0.2 | 0.6 |  |
